Experimental findings from patent US8563565B2, “Pyrazoloquinoline derivatives” (Eisai R&D Management Co., Ltd., priority 2011, dated 2013) are described below.

The term IC50 denotes the concentration that inhibits the measured activity by half.

T1 sequence (O76083 whole entry): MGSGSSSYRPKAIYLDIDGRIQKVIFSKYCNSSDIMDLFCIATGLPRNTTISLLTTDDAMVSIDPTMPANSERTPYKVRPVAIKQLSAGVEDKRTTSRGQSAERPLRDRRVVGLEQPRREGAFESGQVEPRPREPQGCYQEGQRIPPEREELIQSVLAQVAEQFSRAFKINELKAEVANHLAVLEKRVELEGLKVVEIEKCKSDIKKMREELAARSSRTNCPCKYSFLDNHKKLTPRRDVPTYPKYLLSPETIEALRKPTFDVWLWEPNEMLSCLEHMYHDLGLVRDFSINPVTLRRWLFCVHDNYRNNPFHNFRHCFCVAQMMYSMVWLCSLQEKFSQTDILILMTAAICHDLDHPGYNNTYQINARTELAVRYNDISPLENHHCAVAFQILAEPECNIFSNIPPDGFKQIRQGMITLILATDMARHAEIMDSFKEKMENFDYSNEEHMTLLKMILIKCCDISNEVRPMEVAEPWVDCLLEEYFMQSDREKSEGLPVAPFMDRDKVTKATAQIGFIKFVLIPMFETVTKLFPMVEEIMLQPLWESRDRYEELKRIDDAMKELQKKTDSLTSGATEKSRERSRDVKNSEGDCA

The experiment has as its target T1, human recombinant PDE9 protein (Homo sapiens, UniProt O76083).
T1 construct: His-tag (inferred from the Ni column purification; a myc His-tag vector is named only for the HEK293 expression check); made in house; host or cells: silkworm (pYNG vector, Katakura Industries)
The experiment can be described thus: PDE9 inhibitory activity test (measurement of PDE9 inhibitory action, [3H]-cGMP). Type of experiment: biochemical. To be noted: PDE9 IC50, human recombinant PDE9, 30° C., 10 min. The text has this: 1) Preparation of a Human Recombinant PDE9 Protein
An hsPDE9A 1cDNA fragment was amplified by being based on a base sequence (Accession No.: AF048837) of the hsPDE9A1 registered on GenBank data base, and by using the following sequences (Hokkaido System Science Co., Ltd.) as a primer and Human hippocampus cDNA library (Clontech Laboratories, Inc.) as a template DNA, and using Pfu50 DNA polymerase (Invitrogen Corp.), and by a polymerase chain reaction (PCR) of the following condition.
The condition of PCR: [96° C., 5 min]×1 cycle, [(96° C., 10 sec), (57° C., 5 sec), (72° C., 2 min)]×30 cycles
The obtained hsPDE9A 1 cDNA fragment was incorporated in a TOPO-TA cloning vector (Invitrogen Corp.), and the base sequence was checked; and thereafter, the resultant was transfected in a pcDNA 3.1/myc His-tag vector (Invitrogen Corp.) to thereby make a human PDE9 expression vector for mammal cells. The human PDE9 expression vector for mammal cells was transfected with transient expression to an HEK293 cell by using a LIPOFETAMINE 2000 Reagent (Gibco). It was confirmed by Western blot method that the PDE9A expressed in the HEK293 cell, and then, the human PDE9A 1cDNA fragment was transfected in a pYNG vector (Katakura Industries Co., Ltd.) to thereby make an expression vector for insect cells. A supernatant of homogenized silk worm in which a large amount of PDE9 was expressed was purified by an equilibrated Ni column using a buffer A (20 mmol/L Tris-HCl, pH: 8.0, 1 mmol/L DTT, 10 mmol/L imidazole). After 1 hour of mixing of the supernatant and the Ni column, cleaning was carried out using a buffer B (20 mmol/L Tris-HCl, pH: 8.0, 1 mmol/L […]), and elution was carried out using a buffer C (20 mmol/L Tris-HCl, pH: 8.0, 1 mmol/L DTT, 100 mmol/L imidazole). An elution fraction was preparatively collected to thereby obtain a PDE9 enzyme solution.
2) Measurement of PDE9 Inhibitory Action
To 100 μL of a buffer D (40 mmol/L Tris-HCl, pH: 7.4, 10 mmol/L MgCl2, 1 mM DTT, 2 μM cGMP) solution containing [^3H]-cGMP ([…]/mL), 10 μL of a compound solution for evaluation (a solution in which a compound was dissolved in DMSO and diluted so that the DMSO concentration became 5%) and 90 μL of a solution prepared by diluting the PDE9 enzyme solution prepared in the above with a buffer E (40 mmol/L Tris-HCl, pH: 7.4, 10 mmol/L MgCl2, 1 mM DTT, 1 mmol/L EGTA) were added under ice cooling. The resultant mixed solution was incubated at 30° C. for 10 min, and thereafter heated for 2 min in boiled water to stop the enzyme reaction of the PDE9. Then, the resultant was returned to room temperature; 50 μL of 5′-Nucleotidase (Biomol GmbH, 10 units/mL) was added thereto; and the resultant was incubated at 30° C. for 10 min to thereby convert [^3H]-5′-GMP formed in the previous reaction to [^3H]-guanosine. 500 μL of an anion exchange resin (Bio-Rad AG1-X2 resin, mesh size: 200-400, H2O:resin=2:1) was added to the resultant reaction liquid, and allowed to stand for 10 min, and thereafter centrifuged (2,000 rpm, 10 min); and a supernatant in which the [^3H]-guanosine was present was transferred to a LumaPlate (PerkinElmer, Inc.), and the radioactivity was measured by a TopCount NXT microplate scintillation and luminescence counter (PerkinElmer, Inc.).
The inhibition percentage of the evaluation compound was calculated using the following expression, taking the radioactivity of a control containing no evaluation compound to be (A), the radioactivity of a blank containing no enzyme to be (B), and the radioactivity of the evaluation compound to be (C). Inhibition percentage=100−{[(C)−(B)]/[(A)−(B)]}×100(%)
The IC50 value for PDE9 of the evaluation compound was determined from inhibition percentage for various concentrations.
For `COc1nc(C)cc(C)c1-c1ccc2c(c1)[nH]c(=O)c1cnn([C@@H]3COC[C@H]3OC)c12` (racemic) [Example 60, 7-(2-methoxy-4,6-dimethylpyridin-3-yl)-1-[(3RS,4SR)-4-methoxytetrahydrofuran-3-yl]-1H-pyrazolo[4,3-c]quinolin-4(5H)-one], the IC50 stood at 31.1 nM.
As for `COc1ncc(C)c(-c2ccc3c(c2)[nH]c(=O)c2cnn([C@@H]4COC[C@H]4OC)c23)c1C` (racemic) [Example 61, 7-(2-methoxy-3,5-dimethylpyridin-4-yl)-1-[(3RS,4SR)-4-methoxytetrahydrofuran-3-yl]-1H-pyrazolo[4,3-c]quinolin-4(5H)-one], the figure is 77.5 nM.
`COc1nc(C)cc(C)c1-c1ccc2c(c1)[nH]c(=O)c1cnn(C3CCOC3)c12` (single isomer, unassigned) [28 (+)]: the 50% inhibitory concentration (IC50) is 29.6 nM.
As for `COc1cc(C)c(-c2ccc3c(c2)[nH]c(=O)c2cnn(C4CCOC4)c23)c(C)n1` (single isomer, unassigned) [29 (+)], the figure is 137 nM; as for `COc1nc(CF)cc(C)c1-c1ccc2c(c1)[nH]c(=O)c1cnn(C3CCOC3)c12` (single isomer, unassigned) [31 (+)], 20.1 nM; as for `COc1nc(CF)cc(C)c1-c1ccc2c(c1)[nH]c(=O)c1cnn(C3CCOC3)c12` (single isomer, unassigned) [31 (−)], 7.42 nM.
In the case of `COc1nccc(C)c1-c1ccc2c(c1)[nH]c(=O)c1cnn(C3CCOC3)c12` (single isomer, unassigned) [32 (+)] it was 70.7 nM; in that of `COc1nc(CF)cc(C)c1-c1ccc2c(c1)[nH]c(=O)c1cnn(C3CCCOC3)c12` (single isomer, unassigned) [35 (+)], 2.62 nM.
`COc1nc(CF)cc(C)c1-c1ccc2c(c1)[nH]c(=O)c1cnn(C3CCCOC3)c12` (single isomer, unassigned) [35 (−)]: the IC50 was 2.96 nM.
On to `COc1ncc(C)c(-c2ccc3c(c2)[nH]c(=O)c2cnn(C4CCCOC4)c23)c1C` (single isomer, unassigned) [36 (+)], for which the IC50 was found to be 8.98 nM.
In the case of `COc1ncc(C)c(-c2ccc3c(c2)[nH]c(=O)c2cnn(C4CCCOC4)c23)c1C` (single isomer, unassigned) [36 (−)] it was 8.1 nM; in that of `COc1cc(C)c(-c2ccc3c(c2)[nH]c(=O)c2cnn(C4CCCOC4)c23)c(C)n1` (single isomer, unassigned) [37 (+)], 10.9 nM; in that of `COc1cc(C)c(-c2ccc3c(c2)[nH]c(=O)c2cnn(C4CCCOC4)c23)c(C)n1` (single isomer, unassigned) [37 (−)], 10.1 nM.
In the case of `COc1cc(C)c(-c2ccc3c(c2)[nH]c(=O)c2cnn(C4CCCOC4)c23)c(CF)n1` (single isomer, unassigned) [38 (+)], the IC50 stood at 17.1 nM.
In the case of `COc1cc(C)c(-c2ccc3c(c2)[nH]c(=O)c2cnn(C4CCCOC4)c23)c(CF)n1` (single isomer, unassigned) [38 (−)] it was 12.4 nM.
On to `COc1nccc(C)c1-c1ccc2c(c1)[nH]c(=O)c1cnn(C3CCCOC3)c12` (single isomer, unassigned) [39 (+)], for which the 50% inhibitory concentration (IC50) is 5.07 nM.
For `COc1nccc(C)c1-c1ccc2c(c1)[nH]c(=O)c1cnn(C3CCCOC3)c12` (single isomer, unassigned) [39 (−)], the IC50 worked out at 4.08 nM.
For the molecule `COc1cc(C)c(-c2ccc3c(c2)[nH]c(=O)c2cnn(C4CCCOCC4)c23)c(C)c1` (single isomer, unassigned) [42 (+)], the IC50 is 8.81 nM.
Regarding `COc1cc(C)c(-c2ccc3c(c2)[nH]c(=O)c2cnn(C4CCCOCC4)c23)c(C)c1` (single isomer, unassigned) [42 (−)], the IC50 worked out at 22 nM.
In the case of `Cc1cccc(C)c1-c1ccc2c(c1)[nH]c(=O)c1cnn(C3CCOC3)c12` (single isomer, unassigned; (+)) [33 (+), (+)-7-(2,6-dimethylphenyl)-1-(tetrahydrofuran-3-yl)-1H-pyrazolo[4,3-c]quinolin-4(5H)-one] it was 113 nM.
As for `COc1nc(C)cc(C)c1-c1ccc2c(c1)[nH]c(=O)c1cnn(C3CCCOC3)c12` (single isomer, unassigned; (+)) [34 (+), (+)-7-(2-methoxy-4,6-dimethylpyridin-3-yl)-1-(tetrahydro-2H-pyran-3-yl)-1H-pyrazolo[4,3-c]quinolin-4(5H)-one], the figure is 3.88 nM.
Take `COc1ncc(C)c(-c2ccc3c(c2)[nH]c(=O)c2cnn(C4CCCOCC4)c23)c1C` (single isomer, unassigned; (+)) [41 (+), (+)-7-(2-methoxy-3,5-dimethylpyridin-4-yl)-1-(oxepan-4-yl)-1H-pyrazolo[4,3-c]quinolin-4(5H)-one]: the IC50 is 5.91 nM.
In the case of `COc1nc(C)cc(C)c1-c1ccc2c(c1)[nH]c(=O)c1cnn(C3CCCOC3)c12` (single isomer, unassigned; (-)) [34 (−), (−)-7-(2-methoxy-4,6-dimethylpyridin-3-yl)-1-(tetrahydro-2H-pyran-3-yl)-1H-pyrazolo[4,3-c]quinolin-4(5H)-one] it was 3.36 nM; in that of `COc1ncc(C)c(-c2ccc3c(c2)[nH]c(=O)c2cnn(C4CCCOCC4)c23)c1C` (single isomer, unassigned; (-)) [41 (−), (−)-7-(2-methoxy-3,5-dimethylpyridin-4-yl)-1-(oxepan-4-yl)-1H-pyrazolo[4,3-c]quinolin-4(5H)-one], 12.1 nM; in that of `COc1ncc(C)c(-c2ccc3c(c2)[nH]c(=O)c2cnn([C@@H]4CCOC4)c23)c1C` [25 (+)R], 41 nM.
In the case of `COc1ncc(C)c(-c2ccc3c(c2)[nH]c(=O)c2cnn([C@H]4CCOC4)c23)c1C` [25 (−)S] it was 9.43 nM; in that of `COc1cc(C)c(-c2ccc3c(c2)[nH]c(=O)c2cnn(C4CCOC4)c23)c(CF)n1` (stereo not drawn) [30 (+)], 225 nM; in that of `Cc1cccc(C)c1-c1ccc2c(c1)[nH]c(=O)c1cnn(C3CCOCC3)c12` [Example 1, 7-(2,6-dimethylphenyl)-1-(tetrahydro-2H-pyran-4-yl)-1H-pyrazolo[4,3-c]quinolin-4(5H)-one], 24.3 nM.
As for `COCc1cc(C)c(-c2ccc3c(c2)[nH]c(=O)c2cnn(C4CCOCC4)c23)c(C)c1` [Example 7], the figure is 9.2 nM.
Turning to `Cc1cc(F)nc(C)c1-c1ccc2c(c1)[nH]c(=O)c1cnn(C3CCOCC3)c12` [Example 8], the concentration for half-maximal inhibition (IC50) stood at 25.2 nM.
As for `Cc1cc(Cl)c(-c2ccc3c(c2)[nH]c(=O)c2cnn(C4CCOCC4)c23)c(C)n1` [Example 9], the figure is 21.7 nM; as for `COc1ncc(Cl)c(C)c1-c1ccc2c(c1)[nH]c(=O)c1cnn(C3CCOCC3)c12` [Example 10], 20.8 nM; as for `COc1nc(C)c(Cl)c(C)c1-c1ccc2c(c1)[nH]c(=O)c1cnn(C3CCOCC3)c12` [Example 11], 11.3 nM.
As for `Cc1cc(C#N)nc(C)c1-c1ccc2c(c1)[nH]c(=O)c1cnn(C3CCOCC3)c12` [Example 13], the figure is 36.7 nM.
In the case of `COc1nc(C)c(-c2ccc3c(c2)[nH]c(=O)c2cnn(C4CCOCC4)c23)c(OC)n1` [Example 14] it was 21.2 nM; in that of `Cc1cc(C(F)F)nc(C)c1-c1ccc2c(c1)[nH]c(=O)c1cnn(C3CCOCC3)c12` [Example 16], 6.32 nM.
Consider `COc1nc(CF)cc(C)c1-c1ccc2c(c1)[nH]c(=O)c1cnn(C3CCOCC3)c12` [Example 17], for which the IC50 was 6.08 nM.
